Assay [1] concerns N-type calcium channels (CaV2.2). It is filed as cell-based. The note with it: pH 7.4.
Another assay concerns Swiss Webster mice. The note with it: mouse, in vivo.
Another assay deals with CaV2.2. Conditions: cited from earlier work.

In the case of ω-conotoxin GVIA, the “percentage block of N-current” value in assay [1] was determined as 98.5 ± 1.0 percentage. In addition, in the assay on Swiss Webster mice, the behavior after injection result is listed as “shaking syndrome”, the “behavior at higher concentrations” value is given as “passive behavior with a backwards leg-extension” and the “duration of shaking behavior” value is on record as “lasted for more than a day”. For the same substance, the “affinity for CaV2.2, in words” value in the assay with CaV2.2 was “high affinity”.

(Values after article PMC2867246 (Biochemistry, 2010).)
